# Experimental data from patent publication US8158389B2, “Products and methods for in vivo secretion of monatin” (priority 2005, dated 2012).
# Values joined by “and” are separate entries in the source; they are usually repeats but may differ in a detail not shown here. Identical values can stand only once. Marks after values point to notes of the source that are not given here.
# Tests used:
# [1] = tested on: C. glutamicum ATCC 13032 transformed with aspCProA pEKEX-2; experiment: Monatin efflux with biotin and ampicillin treatments; format: cell-based, Corynebacterium glutamicum
# Experimental: C. glutamicum ATCC 13032 strains transformed with aspCProA pEKEX-2 were grown overnight in LB medium supplemented with 50 μg/mL kanamycin incubated at 30° C. and shaking at 250 rpm. […] Microbiol 151:342-347, (1989). […] The pH was adjusted to 7.0.
# Additions of 1.0 g L-tryptophan and 5 g/L sodium pyruvate and ampicillin (either 0 or 10 μg/ml) were made 3 hours following induction.
# [2] = tested on: C. glutamicum 13032::aspC/proA/pEKEX2-2; experiment: Monatin excretion using ethambutol; format: cell-based, Corynebacterium glutamicum
# Experimental: Microbiol 151:342-347, (1989). […] The pH was adjusted to 7.0.
# Conditions for the treatments included 30° C. throughout the experiment and 250 rpm agitation. Ethambutol (10 mg/L) was added either prior to inoculation of shake flasks or at the first feeding time when tryptophan and pyruvate were added. […] Additions of 1 g L-tryptophan, 10 g/L sodium pyruvate, 0.04 mM pyridoxal-5′-phosphate (“PLP”), were made 3 hours following induction.
# [3] = tested on: E. coli BL21 DE3 aspC/proA on pET30; experiment: Monatin excretion with glucose or malate as carbon source; format: cell-based, Escherichia coli
# Experimental: For inoculum, E. coli BL21 DE3 aspC/proA on pET30 was grown overnight in LB medium with 50 μg/mL kanamycin at 37° C. and 250 rpm. For the experimental treatments, Trp-1 medium, as described in Example 6 (Zeman, et al. Folia Microbiol. 35:200-204, (1990)), and 50 μg/mL kanamycin was used. Malate and glucose were 4 g/L initially for their respective treatments. For treatment flasks, 2.2 v/v % of inoculum was added to 50 mL medium volume in 250 mL baffled shake flasks. For glucose treatments, induction of the monatin operon was initiated at 0.8 OD600 nm. For malate treatments, induction was at 0.25 OD. At induction, 0.5 mM IPTG, 0.5 mM pyridoxine hydrochloride, and 0.2 mL of Balch's vitamins (Balch, W. E., et al., “Methanogens: reevaluation of a unique biological group,” Microbiol. Rev. 43:260-296 (1979)) were added. Temperature was reduced to 30° C. at induction.
# [4] = Ampicillin 10 μg/mL, Biotin 1 μg/L
# [5] = Ampicillin 10 μg/mL, Biotin 200 μg/L
# [6] = ethambutol 10 mg/L with 0.2% Tween 20 and 10 μg/ml ampicillin, n = 2
# [7] = ethambutol 10 mg/L, another 10 g/L sodium pyruvate at 24 hours, n = 2
# [8] = Biotin 200 μg/L, Ampicillin 0 μg/mL
structure (smiles),measurement,setting,value
"CC1(C)S[C@@H]2[C@H](NC(=O)[C@H](N)c3ccccc3)C(=O)N2[C@H]1C(=O)O [Ampicillin, ampicillin]","Monatin/dry cell weight, 24 hours",[1]; [4],16.2 mg/g
same,"Monatin/dry cell weight, 48 hours",[1]; [4],13.5 mg/g
same,"Monatin/dry cell weight, 24 hours",[1]; [5],12.1 mg/g
same,"Monatin/dry cell weight, 48 hours",[1]; [5],9.3 mg/g
CC[C@@H](CO)NCCN[C@@H](CC)CO [ethambutol],greater monatin excreted per dry cell weight,"[2]; Tween/ampicillin treatment with 10 mg/L ethambutol vs same treatment without ethambutol, 48 hours",12 fold
same,"Monatin/dry cell weight, 24 hours",[2]; [6],6.94 mg/g
same,"Monatin/dry cell weight, 30 hours",[2]; [6],8.80 mg/g
same,"Monatin/dry cell weight, 48 hours",[2]; [6],9.14 mg/g
same,"Monatin/dry cell weight, 24 hours",[2]; [7],1.04 mg/g
same,"Monatin/dry cell weight, 31 hours",[2]; [7],1.53 mg/g
same,"Monatin/dry cell weight, 48 hours",[2]; [7],2.19 mg/g
same,"Monatin/dry cell weight, 24 hours","[2]; ethambutol 10 mg/L, n = 2",1.16 mg/g
same,"Monatin/dry cell weight, 31 hours","[2]; ethambutol 10 mg/L, n = 2",1.15 mg/g
same,"Monatin/dry cell weight, 48 hours","[2]; ethambutol 10 mg/L, n = 2",1.06 mg/g
"O=C(O)CCCC[C@@H]1SC[C@@H]2NC(=O)N[C@@H]21 [Biotin, biotin]","Monatin/dry cell weight, 48 hours","[1]; Biotin 1 μg/L, Ampicillin 0 μg/mL",4.5 mg/g
same,"Monatin/dry cell weight, 24 hours","[1]; Biotin 1 μg/L, Ampicillin 0 μg/mL, n = 1",1.9* mg/g
same,"Monatin/dry cell weight, 24 hours",[1]; [8],0.9 mg/g
same,"Monatin/dry cell weight, 48 hours",[1]; [8],1.7 mg/g
O=C(O)CC(O)C(=O)O (stereo not drawn) [malate],"Monatin/dcw, 24 hour average","[3]; carbon source 4 g/L initially, 24 hours post induction",7.72 mg/g
same,"Monatin/dcw, 24 hours","[3]; carbon source 4 g/L initially, 24 hours post induction, single flasks",7.19 mg/g and 8.25 mg/g
same,higher monatin transported per unit biomass,[3]; malate as primary carbon source vs glucose,23%
